# From patent publication US11679107B2 (Eisai R&D Management Co., Ltd., priority 2018, dated 2023)
# Where two headings read alike, the source gives them in different places.
# How the values were obtained:
# [1] = system: Ad2 variant pre-mRNAs spliced in HeLa S3 nuclear extracts; assay: In vitro splicing assay (IVS), RT-qPCR of spliced product; format: biochemical; details: for IC50: geometric mean; for Ratio Ad2.1/2.2: ratio of IVS IC50 Ad2.1 to Ad2.2
# Method in brief: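 Ad2 variant pre-mRNA (2 ng) with FTZΔi control RNA in HeLa S3 nuclear extract (8 μg) was pre-incubated with compound or DMSO for 15 min at 30 °C. Splicing ran 90 min at 30 °C after adding 0.5 mM ATP, creatine phosphate and MgCl2. Spliced product was quantified by TaqMan RT-qPCR, normalized to DMSO, and curve-fitted.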
# SF3b complexes = molecular target: T1, SF3b complexes (Homo sapiens, UniProt O75533+Q7RTV0); assay: Scintillation proximity assay (SPA) with [3H]-labelled pladienolide probe; format: binding; details: SF3B1 (WT); geometric mean; read-out: SPA-ATS GMean IC50 (nM) SF3B1 (WT)
# T1 construct: endogenous in cells; host or cells: Nuclear extracts; A HeLa S3 extract preparation is described for the in vitro splicing assay
# Method in brief: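 SF3b complexes captured from nuclear extracts on anti-SF3B1 antibody SPA beads; test compounds pre-incubated 30 min before 2.5 nM [3H]-pladienolide probe added, then 30 min incubation. Bound probe read by scintillation; values from non-linear regression of concentration–response curves.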
# [2] = system: NCI-H1568 cells (high MCL1); assay: Cell proliferation and viability, CellTiter-Glo, 72 hours; format: cell-based; details: for GI50: geometric mean
# Method in brief: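 Cells grown in RPMI-1640 with 10% FBS (Panc line with added insulin and FBS to 15%) were exposed to an 11-point half-log dilution series, typically 10 μM-100 pM, at 0.1% final DMSO. After incubation at 37° C, 5% CO2, ATP content was measured by luminescence and normalized to a time-zero plate and DMSO wells.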
# [3] = Ad2.1 pre-mRNA substrate, read-out: qPCR-IVS-ATS GMean IC50 (nM) Ad2.1
# [4] = Ad2.2 pre-mRNA substrate, read-out: qPCR-IVS-ATS GMean IC50 (nM) Ad2.2
# [5] = 72 h, NCIH1568.1, -100% = cidal, 0% = static, 100% = uninhibited growth
# [6] = NCI-H1568, 72 h, read-out: CTGlo-ATS GMean GI50 (nM) 72 h NCIH1568.1, 72 h, NCIH1568.1
# [7] = NCI-H1568, read-out: CTGlo-ATS GMean GI50 (nM) 72 h NCIH1568.1, NCIH1568.1 cells, 72 h
# [8] = NCIH1568.1 cells, 72 h, −100% cidal, 0% static, 100% maximal growth
# [9] = NCI-H1568, 72 h, read-out: CTGlo-ATS GMean GI50 (nM) 72 h NCIH1568.1, NCIH1568.1 cells, 72 h
# [10] = NCI-H1568, read-out: CTGlo-ATS GMean GI50 (nM) 72 h NCIH1568.1, 72 h, NCIH1568.1
SMILES,"IC50 [1, 3]","IC50 [1, 4]",Ratio Ad2.1/2.2 [1],IC50 (SF3b complexes),"CTGlo-ATS Mean MinResponse % 72 h NCIH1568.1 [2, 5]","GI50 [2, 6]","GI50 [2, 7]","CTGlo-ATS Mean MinResponse % 72 h NCIH1568.1 [2, 8]","GI50 [2, 9]","GI50 [2, 10]"
"C/C(=C\c1cc(F)cc(N2CCN(C(=O)Cn3cccn3)CC2)c1)[C@H]1OC(=O)C[C@H](O)CC[C@H](C)[C@@H](OC(=O)NCCN(C)C)/C=C/[C@@H]1C [Compound 224, [(2S,3S,4E,6R,7S,10R)-2-[(E)-1-[3-fluoro-5-[4-(2-pyrazol-1-ylacetyl)piperazin-1-yl]phenyl]prop-1-en-2-yl]-10-hydroxy-3,7-dimethyl-12-oxo-1-oxacyclododec-4-en-6-yl] N-[2-(dimethylamino)ethyl]carbamate]",41.1 nM,5.88 nM,6.991,3.14 nM,−61.875%,16.4 nM,–,–,–,–
C/C(=C\c1cc(F)c2nnn([C@H]3CC[C@H](O)CC3)c2c1)[C@H]1OC(=O)C[C@H](O)CC[C@H](C)[C@@H](OC(=O)N2CCN(C)CC2)/C=C/[C@@H]1C [Compound 147],9.57 nM,7.43 nM,–,7.3 nM,–,–,1.56 nM,−91.884%,–,–
C/C(=C\c1cc(F)cc(N2CCN(C(=O)[C@H]3CCOC3)CC2)c1)[C@H]1OC(=O)C[C@H](O)CC[C@H](C)[C@@H](OC(=O)N2CCN(C)CC2)/C=C/[C@@H]1C [Compound 151],17.9 nM,11.4 nM,–,3.41 nM,–,–,–,−83.213%,2.24 nM,–
CC(=O)N1CCC(CN(C)c2cc(F)cc(/C=C(\C)[C@H]3OC(=O)C[C@H](O)CC[C@H](C)[C@@H](OC(=O)N4CCN(C)CC4)/C=C/[C@@H]3C)c2)CC1 [Compound 186],41.8 nM,17.4 nM,–,12.6 nM,–,–,–,−70.969%,14.5 nM,–
CCC(=O)N1CCC(N(C)c2cc(F)cc(/C=C(\C)[C@H]3OC(=O)C[C@H](O)CC[C@H](C)[C@@H](OC(=O)N4CCN(C)CC4)/C=C/[C@@H]3C)c2)CC1 [Compound 178],20.4 nM,4.31 nM,–,2.16 nM,–,–,6.85 nM,−77.714%,–,–
COc1ccc(-n2nnc3c(F)cc(/C=C(\C)[C@H]4OC(=O)C[C@H](O)CC[C@H](C)[C@@H](OC(=O)N5CCN(C)CC5)/C=C/[C@@H]4C)cc32)cc1 [Compound 165],29.5 nM,15.2 nM,–,18.7 nM,–,–,10 nM,−78.159%,–,–
C/C(=C\c1cc(F)c2nnn([C@@H](C)CO)c2c1)[C@H]1OC(=O)C[C@H](O)CC[C@H](C)[C@@H](OC(=O)N2CCN(C)CC2)/C=C/[C@@H]1C [Compound 149],9.13 nM,8.71 nM,–,1.86 nM,–,–,1.66 nM,−73.106%,–,–
C/C(=C\c1cc(F)cc(N2CCN(CCCO)CC2)c1)[C@H]1OC(=O)C[C@H](O)CC[C@H](C)[C@@H](OC(=O)N2CCN(C)CC2)/C=C/[C@@H]1C [Compound 136],8.64 nM,14.5 nM,–,8.11 nM,–,–,–,−90.722%,7.17 nM,–
C/C(=C\c1cc(F)cc(N(C)C2CCN(C(=O)c3cnco3)CC2)c1)[C@H]1OC(=O)C[C@H](O)CC[C@H](C)[C@@H](OC(=O)N2CCN(C)CC2)/C=C/[C@@H]1C [Compound 188],7.41 nM,5.63 nM,–,2.61 nM,–,–,2.77 nM,−79.922%,–,–
C/C(=C\c1cc(F)c2cnn(C3CCN(S(C)(=O)=O)CC3)c2c1)[C@H]1OC(=O)C[C@H](O)CC[C@H](C)[C@@H](OC(=O)N2CCN(C)CC2)/C=C/[C@@H]1C [Compound 196],30 nM,19.6 nM,1.529,13.2 nM,−90.418%,–,–,–,–,1.83 nM
"C/C(=C\c1cc(F)cc(N2CCN(C(=O)Cn3cccn3)CC2)c1)[C@H]1OC(=O)C[C@H](O)CC[C@H](C)[C@@H](OC(=O)N2CCOCC2)/C=C/[C@@H]1C [Compound 223, [(2S,3S,4E,6R,7S,10R)-2-[(E)-1-[3-fluoro-5-[4-(2-pyrazol-1-ylacetyl)piperazin-1-yl]phenyl]prop-1-en-2-yl]-10-hydroxy-3,7-dimethyl-12-oxo-1-oxacyclododec-4-en-6-yl] morpholine-4-carboxylate]",93.9 nM,6.96 nM,13.488,15.9 nM,−62.835%,–,–,–,–,33.1 nM
C/C(=C\c1cc(F)cc(N(C)C2CCN(C(=O)Nc3ccccc3)CC2)c1)[C@H]1OC(=O)C[C@H](O)CC[C@H](C)[C@@H](OC(=O)N2CCN(C)CC2)/C=C/[C@@H]1C [Compound 193],47.8 nM,19.6 nM,–,127 nM,–,–,17.2 nM,−89.438%,–,–
"COCC(=O)N[C@H]1CCN(c2cc(F)cc(/C=C(\C)[C@H]3OC(=O)CC(O)CCC(C)[C@@H](OC(=O)N4CCN(C)CC4)/C=C/[C@@H]3C)c2)C1 (stereo in doubt) [Compound 218, [(2S,3S,4E,6R,7R,10S)-2-[(E)-1-[3-fluoro-5-[(3S)-3-[(2-methoxyacetyl)amino]pyrrolidin-1-yl]phenyl]prop-1-en-2-yl]-10-hydroxy-3,7-dimethyl-12-oxo-1-oxacyclododec-4-en-6-yl] 4-methylpiperazine-1-carboxylate]",30.5 nM,5.62 nM,5.425,2.79 nM,−75.420%,–,–,–,–,6.2 nM
"C/C(=C\c1cc(F)cc(N2CCN(C(=O)Cn3cccn3)CC2)c1)[C@H]1OC(=O)C[C@H](O)CC[C@H](C)[C@@H](OC(=O)N2CCN(C3CCCCC3)CC2)/C=C/[C@@H]1C [Compound 238, [(2S,3S,4E,6R,7S,10R)-2-[(E)-1-[3-fluoro-5-[4-(2-pyrazol-1-ylacetyl)piperazin-1-yl]phenyl]prop-1-en-2-yl]-10-hydroxy-3,7-dimethyl-12-oxo-1-oxacyclododec-4-en-6-yl] 4-cyclohexylpiperazine-1-carboxylate]",32.2 nM,68.1 nM,0.473,18.1 nM,−88.447%,5.79 nM,–,–,–,–
C/C(=C\c1cc(F)cc(N(C)C2CCN(C(=O)C(F)(F)F)CC2)c1)[C@H]1OC(=O)C[C@H](O)CC[C@H](C)[C@@H](OC(=O)N2CCN(C)CC2)/C=C/[C@@H]1C [Compound 181],19.7 nM,19.2 nM,–,8.2 nM,–,–,9.74 nM,−85.226%,–,–
"C/C(=C\c1cc(F)cc(N2CCN(C(=O)Cn3cccn3)CC2)c1)[C@H]1OC(=O)C[C@H](O)CC[C@H](C)[C@@H](OC(=O)N2CCN(c3ccncc3)CC2)/C=C/[C@@H]1C [Compound 237, [(2S,3S,4E,6R,7S,10R)-2-[(E)-1-[3-fluoro-5-[4-(2-pyrazol-1-ylacetyl)piperazin-1-yl]phenyl]prop-1-en-2-yl]-10-hydroxy-3,7-dimethyl-12-oxo-1-oxacyclododec-4-en-6-yl] 4-pyridin-4-ylpiperazine-1-carboxylate]",18.6 nM,9.33 nM,1.989,8.37 nM,−78.619%,12 nM,–,–,–,–
C/C(=C\c1cc(F)cc(N2CCN(C(=O)C3COC3)CC2)c1)[C@H]1OC(=O)C[C@H](O)CC[C@H](C)[C@@H](OC(=O)N2CCN(C)CC2)/C=C/[C@@H]1C [Compound 153],14.5 nM,14.8 nM,–,4.83 nM,–,–,2.34 nM,−81.206%,–,–
CC(=O)N1CCC(n2cnc3c(F)cc(/C=C(\C)[C@H]4OC(=O)C[C@H](O)CC[C@H](C)[C@@H](OC(=O)N5CCN(C)CC5)/C=C/[C@@H]4C)cc32)CC1 [Compound 146],11.1 nM,12.7 nM,–,22.7 nM,–,–,–,−88.975%,2.79 nM,–
C/C(=C\c1cc(F)cc(N(C)CC2CCN(S(C)(=O)=O)CC2)c1)[C@H]1OC(=O)C[C@H](O)CC[C@H](C)[C@@H](OC(=O)N2CCN(C)CC2)/C=C/[C@@H]1C [Compound 187],157 nM,59.6 nM,–,43.2 nM,–,–,65 nM,−54.197%,–,–
